Results reported in publication PMC10536132, “Arginine Gemini-Based Surfactants for Antimicrobial and Antibiofilm Applications: Molecular Interactions, Skin-Related Anti-Enzymatic Activity and Cytotoxicity” (Molecules, 2023).
Marks after values point to notes of the source that are not given here.

Experiments:
[1] = design: method as in doi:10.1021/la981295l; settings: cited from earlier work
[2] = test system: squamous cell carcinoma (A431); assay: Cell viability, NRU assay; format: cell-based; settings: A431, surfactant in solution at 35.6 µg/mL, 24 h
Experimental: The immortal human keratinocyte (HaCaT) and the squamous cell carcinoma (A431) were obtained from Celltec, University of Barcelona. The cells were grown in DMEM medium (4.5 g/L glucose) supplemented with 10% (v/v) FBS, 2 mM L-glutamine, 100 U/mL of penicillin and 100 μg/mL of streptomycin at 37 °C under 5% CO2. Cells were routinely cultured in 75 cm^2 culture flasks and were trypsinized using trypsin-EDTA when reached approximately 80% of confluence.
HaCaT cells (1 × 10^5 cells/mL) and A431 cells (5 × 10^4 cells/mL) were grown at the defined densities into the central 60 wells of a 96-well microplate. Cells were incubated for 24 h under 5% CO2 at 37 °C. The medium was then removed and the cells were incubated with the surfactants (100 μL), previously diluted 1:1 (v/v), reaching a concentration of […] in DMEM medium supplemented with 5% FBS using two different colorimetric methods for quantification, as follows.
The accumulation of the neutral red dye in the lysosomes of viable, undamaged cells constitutes the basis of the neutral red uptake (NRU) assay. After the cells were incubated for 24 h with the corresponding systems at 35.6 µg/mL, the medium was removed and the surfactants´ solutions were incubated for 3 h with the NRU dye solution (50 μg/mL) dissolved in the medium without FBS and phenol red (Lonza). Cells were then washed with sterile PBS, followed by the addition of 100 μL of a solution containing 50% ethanol absolute and 1% acetic acid in distilled water to extract the non-adhered dye. The microplates were then stirred for 5 min at 25 °C to promote the dissolution. Finally, the absorbance of the resulting solutions was measured at λ = 550 nm using a Bio-Rad 550 microplate reader (Hercules, CA, USA).

[3] = design: method as in doi:10.1021/la981295l; settings: cited from earlier work; remark: listed apart in the source
[4] = test system: Pseudomonas aeruginosa PAO1 biofilm; assay: Biofilm inhibition, crystal violet; format: cell-based; settings: P. aeruginosa PAO1, 24 h contact, 2–128 μg/mL tested
Experimental: (§1) The ability of MRSA and P. aeruginosa to form biofilms on propylene surfaces in the presence of bis-Args was determined. The two bacterial cells were kept in contact with the gemini surfactants at different concentrations from 2 to 128 μg/mL for 24 h. Then, the percentage of biofilm inhibition was determined.
(§2) Antibiofilm activity was assessed against biofilm-producing strains of methicillin-resistant Staphylococcus aureus (MRSA) ATCC 43300 and Pseudomonas aeruginosa PAO1. Biofilm inhibition and eradication capacities of the gemini surfactants were evaluated against adherent bacterial biofilms grown in 96-well microtiter plates. Bacteria were grown overnight in tryptic soy agar at 37 °C for 24 h. The bacteria were suspended in lysogeny broth with glucose (1%) at 1.5 × 10^8 CFU/mL.
(§3) Biofilm inhibition procedure: 100 μL of the gemini surfactant at different concentration values was added to each well in a 96-well microplate, then, 100 μL of the diluted bacterial suspension was added to the wells. Two-fold serial dilutions of the gemini surfactants to be tested were used (2–128 μg/mL). Microtiter plates were incubated at 37 °C for 24 h. Spent growth media was then discarded and biofilm was fixed with 150 μL methanol for 10 min. After the plates were air dried, the biofilms were stained with 50 μL of 0.1 of % crystal violet for 25 min. The plates were rinsed with water and then 150 μL of 96% ethanol containing 10% acetic acid was added to all 96-well plates to dissolve the remaining crystal violet-stained biofilm. The absorbance value was recorded at 570 nm. Each assay was performed at least three times and the results were averaged.

[5] = test system: methicillin-resistant Staphylococcus aureus (MRSA) ATCC 43300 biofilm; assay: Biofilm inhibition, crystal violet; format: cell-based; settings: 24 h contact, 2–128 μg/mL tested
Experimental: as §1, §2, §3

[6] = Apparent pKa by direct titration with NaOH; format: physicochemical; settings: aqueous solution, concentration above the minimum aggregation concentration; pH at semi-equivalence point
Experimental: In order to determine the ionization state of these gemini surfactants at the pH used to investigate their biological properties, the apparent acid pKa was determined for each of them. The pKap value has been determined by means of a direct titration with NaOH of an aqueous solution of each compound. The surfactant concentrations used were in all cases higher than the minimum aggregation concentration, thus avoiding possible deviations in the pK value due to the monomer–aggregate balance. The pKap values can be estimated from the pH at the semi-equivalence point that is reached when the molar ratio of protonated and non-protonated species is 1:1. In these conditions, we have that the pH = pKa.
The pKa value of each compound has been determined by means of a direct titration with NaOH of an aqueous solution of each compound. The pH was measured using the pH electrode Thermo Electron Corporation ORION 8103SC and the temperature was controlled by a thermostatic bath, Heto CBN 8-30. The pKa values can be estimated from the pH at the semi-equivalence point, which contains a 1:1 molar ratio of protonated and non-protonated species; at this point, pH = pKap.

[7] = test system: bovine hyaluronidase; assay: Hyaluronidase inhibitory activity; format: biochemical; settings: negative inhibition values
Method in brief: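 Bovine hyaluronidase (7900 units/mL working solution, 0.1 M acetate pH 3.6) was mixed 1:1 with surfactant in 5% DMSO for 20 min at 37 °C, then with CaCl2 (12.5 mM) for 20 min, then sodium hyaluronate (1.2 mg/mL) for 40 min. The p-dimethylaminobenzaldehyde colour was read at 585 nm. % inhibition = (A1−A2)/A1×100.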

CCCCCCCCCCCC(=O)NC(CCCNC(=N)N)C(=O)NCCCNC(=O)C(CCCNC(=N)N)NC(=O)CCCCCCCCCCC (stereo not drawn) [C3(LA)2, Bis (N^α-lauroyl arginine 1,3-propane) diamide]
CMC (mM) Fluorescence [1]: 0.4 * mM | cytotoxicity, in words [2]: did not cause any apparent cytotoxicity | CMC (mM) Surface Tension [3]: 0.005 * mM | γcmc ([3]; surface tension at the cmc): 35 * mN/m | concentration that inhibits biofilm formation [4]: 32 µg/mL | concentration that inhibits biofilm formation [5]: 32 µg/mL | pKap [6]: 11.4 | increase of hyaluronidase enzymatic activity [7]: 48.3%
